Where two headings read alike, the source gives them in different places.

In assay [1] the test system is Aβ40 in conditioned medium of cells stably expressing Amyloid Precursor Protein (APP). The assay is described as follows: In vitro BACE cell-based assay (Aβ40 in conditioned medium, sandwich ELISA). Conditions: read-out: HEK cell assay. The procedure, abridged:
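Step two: 10-point compound titration added, starting 100 μM or 10 μM, 0.1% DMSO. Step three: medium Aβ40 measured by ELISA, capture 3 h and detection 2 h at 4° C, TRF read.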
Background: An ELISA detects its analyte on a solid surface through an enzyme-linked reagent.

The target in assay [2] is Beta Secretase enzyme (BACE) (Homo sapiens, UniProt P56817). As to the kind of experiment: In vitro enzymatic BACE FRET (fluorescence resonance energy transfer) assay. Format: biochemical. Conditions: average IC50, enzyme assay; read-out: BACE 1 FRET assay. The procedure, abridged:
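Run in 0.05 M acetate pH 4.2 with 10% DMSO final and 100 uM genapol; started by adding 50 nM FRET peptide substrate (fluorophore and quencher flanking the cleavage site), incubated one hour, then stopped with Tris to neutral pH before reading fluorescence.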

Setting [3] is: Homo sapiens, HEK293, average IC50, HEK cells.
Where [4] appears, read: Homo sapiens, HEK293, average IC50.

Beta Secretase enzyme (BACE), sequence (P56817 46-501, species assumed): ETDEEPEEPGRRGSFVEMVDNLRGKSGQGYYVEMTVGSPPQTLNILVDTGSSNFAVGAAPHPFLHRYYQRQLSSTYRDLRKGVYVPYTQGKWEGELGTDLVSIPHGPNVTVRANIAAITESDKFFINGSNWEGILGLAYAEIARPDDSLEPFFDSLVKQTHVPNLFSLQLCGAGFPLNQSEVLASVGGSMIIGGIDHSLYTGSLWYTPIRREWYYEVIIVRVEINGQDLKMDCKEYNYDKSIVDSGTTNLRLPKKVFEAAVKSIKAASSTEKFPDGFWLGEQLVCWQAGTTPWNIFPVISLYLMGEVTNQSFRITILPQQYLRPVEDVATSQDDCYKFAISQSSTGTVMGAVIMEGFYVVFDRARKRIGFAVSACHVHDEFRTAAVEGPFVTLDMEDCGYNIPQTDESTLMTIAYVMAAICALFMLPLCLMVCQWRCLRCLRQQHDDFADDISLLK

On to `CC#Cc1cnc(F)c(-c2ccc3c(c2)[C@@]2(COC(N)=N2)c2cc(C#CC4(C)COC4)cnc2O3)c1` [Example 955, (5S)-7-(2-fluoro-5-(1-propyn-1-yl)-3-pyridinyl)-3-((3-methyl-3-oxetanyl)ethynyl)spiro[chromeno[2,3-b]pyridine-5,4′-[1,3]oxazol]-2′-amine], for which the IC50 in assay [1] (setting [3]) was 2 nM; in assay [2] it was 0.5 nM.

In the case of `NC1=N[C@@]2(CO1)c1cc(-c3cccnc3F)ccc1Oc1cnc(N3CCC(F)CC3)cc12` [Example 436, (5S)-3-(4-fluoro-1-piperidinyl)-7-(2-fluoro-3-pyridinyl)spiro[chromeno[2,3-c]pyridine-5,4′-[1,3]oxazol]-2′-amine], the IC50 was found to be 8 nM in assay [1] (setting [3]) and 0.6 nM in assay [2].

Regarding `CCc1cc2c(c(F)n1)Oc1ccc(-c3cncc(F)c3)cc1[C@@]21COC(N)=N1` [Example 850, (5S)-3-ethyl-1-fluoro-7-(5-fluoro-3-pyridinyl)spiro[chromeno[2,3-c]pyridine-5,4′-[1,3]oxazol]-2′-amine], the IC50 was found to be 52 nM in assay [1] (setting [3]) and 4.5 nM in assay [2].

Take `Cc1ccn(-c2cc(F)c3c(c2)[C@]2(COC(N)=N2)c2cc(-c4cccnc4F)ccc2O3)n1` [Example 620, (4S)-4′-fluoro-7′-(2-fluoro-3-pyridinyl)-2′-(3-methyl-1H-pyrazol-1-yl)spiro[1,3-oxazole-4,9′-xanthen]-2-amine]: the IC50 in assay [1] (setting [3]) was found to be 68 nM; in assay [2], 2.8 nM.

Regarding `Cc1cc(-c2cc3c(cn2)Oc2ccc(-c4cccnc4F)cc2[C@@]32CSC(N)=N2)ccn1` [Example 934, (5S)-7-(2-fluoro-3-pyridinyl)-3-(2-methyl-4-pyridinyl)spiro[chromeno[2,3-c]pyridine-5,4′-[1,3]thiazol]-2′-amine], the IC50 in assay [1] (setting [3]) was 5 nM; in assay [2] it was 1 nM.

On to `Cc1cc(-c2cc3c(cn2)Oc2ccc(-c4cccnc4F)cc2[C@@]32COC(N)=N2)on1` [Example 364, (5S)-7-(2-fluoro-3-pyridinyl)-3-(3-methyl-5-isoxazolyl)spiro[chromeno[2,3-c]pyridine-5,4′-[1,3]oxazol]-2′-amine], for which the results for the IC50 in assay [1] (setting [4]) and in assay [2] were 62.5 nM and 6.9 nM, respectively.

In the case of `CC(C)(C)COc1ccc2c(c1)[C@@]1(COC(N)=N1)c1cc(C3=CCOCC3)cnc1O2` [Example 503, (5S)-3-(3,6-dihydro-2H-pyran-4-yl)-7-(2,2-dimethylpropoxy)spiro[chromeno[2,3-b]pyridine-5,4′-[1,3]oxazol]-2′-amine], the results for the IC50 in assay [1] (setting [3]) and in assay [2] were 19.6 nM and 4.7 nM, respectively.

As to `N#Cc1cccc(-c2ccc3c(c2)[C@@]2(COC(N)=N2)c2cc(C4=CCOCC4)cnc2O3)c1` [Example 169, 3-((5S)-2′-amino-3-(3,6-dihydro-2H-pyran-4-yl)spiro[chromeno[2,3-b]pyridine-5,4′-[1,3]oxazol]-7-yl)benzonitrile], the IC50 in assay [1] (setting [4]) was determined as 4.5 nM; in assay [2], 1.3 nM.

Consider `NC1=N[C@@]2(CS1)c1cc(-c3cnccc3F)ccc1Oc1ncc(C3=CCOCC3)cc12` [Example 768, (5S)-3-(3,6-dihydro-2H-pyran-4-yl)-7-(4-fluoro-3-pyridinyl)spiro[chromeno[2,3-b]pyridine-5,4′-[1,3]thiazol]-2′-amine], for which the IC50 in assay [1] (setting [4]) was found to be 16 nM; in assay [2], 1.2 nM.

In the case of `Cc1cc(-c2ccc3c(c2)[C@@]2(COC(N)=N2)c2cc(-c4ccncc4)ncc2O3)cnc1F` [Example 229, (5S)-7-(6-fluoro-5-methyl-3-pyridinyl)-3-(4-pyridinyl)spiro[chromeno[2,3-c]pyridine-5,4′-[1,3]oxazol]-2′-amine], the IC50 in assay [1] (setting [4]) came out at 60.4 nM; in assay [2], 12.8 nM.

Consider `NC1=N[C@@]2(CO1)c1cc(-c3cccnc3)ccc1Oc1c2cc(C2=CCOCC2)c(F)c1F` [Example 1007, (4S)-2′-(3,6-dihydro-2H-pyran-4-yl)-3′,4′-difluoro-7′-(3-pyridinyl)spiro[1,3-oxazole-4,9′-xanthen]-2-amine], for which the IC50 was 24 nM in assay [1] (setting [4]) and 1.9 nM in assay [2].

`CC(C)(C#N)COc1cc(F)c2c(c1)[C@]1(COC(N)=N1)c1cc(-c3cnccc3F)ccc1O2` [Example 605, 3-(((4S)-2-amino-4′-fluoro-7′-(4-fluoro-3-pyridinyl)spiro[1,3-oxazole-4,9′-xanthen]-2′-yl)oxy)-2,2-dimethylpropanenitrile]: the IC50 was 10 nM in assay [1] (setting [3]) and 0.8 nM in assay [2].

Regarding `NC1=N[C@@]2(CO1)c1cc(-c3cncc(F)c3)ccc1Oc1cnc([C@@H]3CCCCO3)cc12` [Example 381, (5S)-7-(5-fluoro-3-pyridinyl)-3-((2S)-tetrahydro-2H-pyran-2-yl)spiro[chromeno[2,3-c]pyridine-5,4′-[1,3]oxazol]-2′-amine], the IC50 in assay [1] (setting [4]) stood at 62.6 nM; in assay [2], 7.3 nM.

`COc1cc(F)c2c(c1)[C@]1(CSC(N)=N1)c1cc(Br)ccc1O2` [Example 606, (4S)-7′-bromo-4′-fluoro-2′-methoxyspiro[1,3-thiazole-4,9′-xanthen]-2-amine]: the IC50 came out at 279 nM in assay [1] (setting [3]) and 813 nM in assay [2].

For the molecule `NC1=N[C@@]2(CO1)c1cc(-c3cccnc3)ccc1Oc1cnc(-c3ccnc(F)c3)cc12` [Example 536, (5S)-3-(2-fluoro-4-pyridinyl)-7-(3-pyridinyl)spiro[chromeno[2,3-c]pyridine-5,4′-[1,3]oxazol]-2′-amine], the IC50 in assay [1] (setting [3]) was 27.1 nM; in assay [2] it was 2.3 nM.

As to `NC1=N[C@]2(CO1)c1cc(C3=CCOCC3)cc(F)c1Oc1ccc(-c3cccnc3)c(F)c12` [Example 1046, (4R)-7′-(3,6-dihydro-2H-pyran-4-yl)-1′,5′-difluoro-2′-(3-pyridinyl)spiro[1,3-oxazole-4,9′-xanthen]-2-amine], the results for the IC50 in assay [1] (setting [4]) and in assay [2] were 209 nM and 21.2 nM, respectively.

Regarding `CC1(C#Cc2cnc3c(c2)[C@]2(CSC(N)=N2)c2cc(-c4cnccn4)ccc2O3)COC1` [Example 666, (5S)-3-((3-methyl-3-oxetanyl)ethynyl)-7-(2-pyrazinyl)spiro[chromeno[2,3-b]pyridine-5,4′-[1,3]thiazol]-2′-amine], the IC50 in assay [1] (setting [3]) came to 13 nM; in assay [2], 0.8 nM.

For `COC(C)(C)C#Cc1cnc2c(c1)[C@@]1(COC(N)=N1)c1cc(-c3cncnc3)c(F)cc1O2` [Example 644, (5R)-8-fluoro-3-(3-methoxy-3-methyl-1-butyn-1-yl)-7-(5-pyrimidinyl)spiro[chromeno[2,3-b]pyridine-5,4′-[1,3]oxazol]-2′-amine], the IC50 in assay [1] (setting [3]) was determined as 228 nM; in assay [2], 68.2 nM.

`C[C@H]1CN(c2cc3c(cn2)Oc2ccc(-c4cccnc4N4CCN(C)[C@@H](C)C4)cc2[C@@]32COC(N)=N2)CCN1C` [Example 530, (5S)-3-((3S)-3,4-dimethyl-1-piperazinyl)-7-(2-((3S)-3,4-dimethyl-1-piperazinyl)-3-pyridinyl)spiro[chromeno[2,3-c]pyridine-5,4′-[1,3]oxazol]-2′-amine]: the IC50 stood at 195 nM in assay [1] (setting [3]) and 3370 nM in assay [2].

`NC1=N[C@@]2(CS1)c1cc(-c3cncc(F)c3)ccc1Oc1cnc(C3=CCOCC3)cc12` [Example 619, (5S)-3-(3,6-dihydro-2H-pyran-4-yl)-7-(5-fluoro-3-pyridinyl)spiro[chromeno[2,3-c]pyridine-5,4′-[1,3]thiazol]-2′-amine]: the IC50 came to 8 nM in assay [1] (average IC50, HEK cells) and 0.4 nM in assay [2].

As to `CC(C)(C)C#Cc1ccc2c(c1)[C@@]1(COC(N)=N1)c1cc(-c3ccnc(F)c3)ncc1O2` [Example 162, (5S)-7-(3,3-dimethyl-1-butyn-1-yl)-3-(2-fluoro-4-pyridinyl)spiro[chromeno[2,3-c]pyridine-5,4′-[1,3]oxazol]-2′-amine], the IC50 in assay [1] (setting [4]) amounted to 775 nM; in assay [2] it was 23 nM.

On to `Cc1ccnc(F)c1-c1ccc2c(c1)[C@@]1(COC(N)=N1)c1cc(-c3ccnc(F)c3)ncc1O2` [Example 237, (5S)-7-(2-fluoro-4-methyl-3-pyridinyl)-3-(2-fluoro-4-pyridinyl)spiro[chromeno[2,3-c]pyridine-5,4′-[1,3]oxazol]-2′-amine], for which the IC50 in assay [1] (setting [4]) is 22.4 nM; in assay [2], 1.6 nM.

With `N#Cc1cncc(-c2ccc3c(c2)[C@@]2(COC(N)=N2)c2cc(OCC4CCOCC4)cc(F)c2O3)c1` [Example 553, 5-((4S)-2-amino-5′-fluoro-7′-(tetrahydro-2H-pyran-4-ylmethoxy)spiro[1,3-oxazole-4,9′-xanthen]-2′-yl)-3-pyridinecarbonitrile], the IC50 in assay [1] (setting [3]) is 13.2 nM; in assay [2], 2.4 nM.

For `CC(C)(C#N)COc1cc(F)c2c(c1)[C@]1(COC(N)=N1)c1cc(-c3cccnc3F)c(F)cc1O2` [Example 862, 3-(((4S)-2-amino-4′,6′-difluoro-7′-(2-fluoro-3-pyridinyl)spiro[1,3-oxazole-4,9′-xanthen]-2′-yl)oxy)-2,2-dimethylpropanenitrile], the results for the IC50 in assay [1] (setting [3]) and in assay [2] were 11 nM and 0.3 nM, respectively.

As to `CC#Cc1cncc(-c2ccc3c(c2)[C@@]2(COC(N)=N2)c2cc(C4=CCCOC4)nc(OC)c2O3)c1` [Example 836, (5S)-3-(5,6-dihydro-2H-pyran-3-yl)-1-methoxy-7-(5-(1-propyn-1-yl)-3-pyridinyl)spiro[chromeno[2,3-c]pyridine-5,4′-[1,3]oxazol]-2′-amine], the values for the IC50 in assay [1] (setting [4]) and in assay [2] were 4 nM and 0.5 nM, respectively.

Regarding `CC(C)(F)COc1cc(F)c2c(c1)[C@]1(COC(N)=N1)c1cc(-c3ccc(F)nc3)ccc1O2` [Example 259, (4S)-4′-fluoro-2′-(2-fluoro-2-methylpropoxy)-7′-(6-fluoro-3-pyridinyl)spiro[1,3-oxazole-4,9′-xanthen]-2-amine], the figures for the IC50 in assay [1] (setting [4]) and in assay [2] were 19.8 nM and 2.7 nM, respectively.

The values are drawn from patent US8883782B2, “Spiro-tetracyclic ring compounds as beta-secretase modulators and methods of use” (Amgen Inc., priority 2010, dated 2014).
